According to ChEMBL document CHEMBL3872245, “A novel curcumin derivative which inhibits P-glycoprotein, arrests cell cycle and induces apoptosis in multidrug resistance cells” (Bioorg Med Chem, 2017):
Activity calls are given as the source filed them. The calls are words filed in the database; no cut-off is given here.

Assays:
[1] = Chemical stability of the compound in pH 1 HCl buffer at 10^-4 M incubated for 75 mins by HPLC method; assay type: physicochemical; conditions: pH 1, 1.25 h, 100 µM
[2] = Stability of the compound at 4 degreeC at 10^-4 M incubated for 6 to 12 days under dark condition by HPLC method; assay type: physicochemical; conditions: 100 µM
[3] = Chemical stability of the compound in pH 7.4 phosphate buffered saline at 10^-4 M incubated for overnight by HPLC method; assay type: physicochemical; conditions: buffer, pH 7.4, 100 µM
[4] = Chemical stability of the compound in pH 5 sodium acetate buffer at 10^-4 M incubated for overnight by HPLC method; assay type: physicochemical; conditions: pH 5, 100 µM
[5] = Antiproliferative activity against human K562 cells measured after 48 hrs by Presto blue assay; assay type: functional; conditions: K562, 48 h
[6] = system: K562; assay: Inhibition of P-gp in doxorubicin resistant human K562 cells assessed as reduction in cell viability measured after 48 hrs by Presto blue assay; assay type: cell-based
[7] = Stability of the compound at room temperature at 10^-4 M incubated for 6 to 12 days under dark condition by HPLC method; assay type: physicochemical; conditions: 100 µM
[8] = Stability of the compound in HEPES medium at 1.5 10^-3 M incubated for 5 to 30 mins under dark condition by HPLC method; assay type: physicochemical
[9] = Chemical stability of the compound in pH 9.1 sodium boric acid buffer at 10^-4 M incubated for overnight by HPLC method; assay type: physicochemical; conditions: pH 9.1, 100 µM
[10] = Antiproliferative activity against human NCI-H460 cells measured after 48 hrs by sulforhodamine B assay; assay type: functional; conditions: NCI-H460, 48 h
[11] = Stability of the compound in RPMI medium at 1.5 10^-3 M incubated for 5 to 30 mins under dark condition by HPLC method; assay type: physicochemical
[12] = Stability of the compound at -20 degreeC at 10^-4 M incubated for 6 to 12 days under dark condition by HPLC method; assay type: physicochemical; conditions: 100 µM
[13] = Chemical stability of the compound in pH 6.7 potassium phosphate buffer at 10^-4 M incubated for overnight by HPLC method; assay type: physicochemical; conditions: pH 6.7, 100 µM
[14] = system: H460; assay: Inhibition of P-gp in drug resistant human H460 cells assessed as reduction in cell viability measured after 48 hrs by sulforhodamine B assay; assay type: cell-based
[15] = system: K562; assay: Induction of apoptosis in doxorubicin resistant human K562 cells at 2.7 uM by Annexin V-FITC/propidium iodide staining based flow cytometry; assay type: functional
[16] = system: K562; assay: Induction of apoptosis in doxorubicin resistant human K562 cells assessed as increase in PARP-1 cleavage at 2.7 to 5.4 uM measured after 48 hrs by Western blot method; assay type: functional, cell-based
[17] = Down regulation of p-gp expression in doxorubicin resistant human K562 cells at 2.7 to 4.1 uM measured after 48 hrs by Western blot method; assay type: functional, cell-based
[18] = Cell cycle arrest in doxorubicin resistant human K562 cells assessed as decrease in G0/G1 phase at 2.7 uM measured after 48 hrs by propidium iodide staining based flow cytometry; assay type: functional
[19] = Up regulation of p53 expression in doxorubicin resistant human K562 cells at 2.7 to 5.4 uM measured after 48 hrs by Western blot method; assay type: functional, cell-based
[20] = Down regulation of cyclin B1 expression in doxorubicin resistant human K562 cells at 2.7 to 5.4 uM measured after 48 hrs by Western blot method; assay type: functional, cell-based
[21] = Cell cycle arrest in doxorubicin resistant human K562 cells assessed as decrease in S phase at 2.7 uM measured after 48 hrs by propidium iodide staining based flow cytometry; assay type: functional
[22] = Cell cycle arrest in doxorubicin resistant human K562 cells assessed as accumulation at G2/M phase at 4.1 to 5.4 uM measured after 48 hrs by propidium iodide staining based flow cytometry; assay type: functional
[23] = Cell cycle arrest in doxorubicin resistant human K562 cells assessed as increase in G2/M phase at 2.7 uM measured after 48 hrs by propidium iodide staining based flow cytometry; assay type: functional
[24] = system: K562; assay: Inhibition of P-gp in doxorubicin resistant human K562 cells assessed as increase in accumulation of rhodamine 123 at 10 uM measured after 1 hr by flow cytometry; assay type: cell-based
[25] = system: K562; assay: Induction of apoptosis in doxorubicin resistant human K562 cells assessed as decrease in pro-caspase 3 level at 2.7 to 5.4 uM measured after 48 hrs by Western blot method; assay type: functional, cell-based
[26] = system: K562; assay: Induction of apoptosis in doxorubicin resistant human K562 cells at 4.1 uM by Annexin V-FITC/propidium iodide staining based flow cytometry; assay type: functional
[27] = system: K562; assay: Induction of apoptosis in doxorubicin resistant human K562 cells at 5.4 uM by Annexin V-FITC/propidium iodide staining based flow cytometry; assay type: functional
[28] = system: K562; assay: Inhibition of P-gp in doxorubicin resistant human K562 cells assessed as reduction in cell viability measured after 48 hrs by SRB assay; assay type: cell-based
[29] = Cell cycle arrest in doxorubicin resistant human K562 cells assessed as increase in G2/M phase at 20 uM measured after 48 hrs by propidium iodide staining based flow cytometry; assay type: functional
[30] = system: K562; assay: Induction of apoptosis in doxorubicin resistant human K562 cells assessed as increase in PARP-1 cleavage at 20 to 40 uM measured after 48 hrs by Western blot method; assay type: functional, cell-based
[31] = system: K562; assay: Induction of apoptosis in doxorubicin resistant human K562 cells decrease in pro-caspase 3 level at 20 to 40 uM measured after 48 hrs by Western blot method; assay type: functional, cell-based
[32] = Cell cycle arrest in doxorubicin resistant human K562 cells assessed as decrease in G0/G1 phase at 20 uM measured after 48 hrs by propidium iodide staining based flow cytometry; assay type: functional
[33] = system: K562; assay: Induction of apoptosis in doxorubicin resistant human K562 cells at 20 uM by Annexin V-FITC/propidium iodide staining based flow cytometry; assay type: functional
[34] = Cell cycle arrest in doxorubicin resistant human K562 cells assessed as decrease in G2/M phase at 30 to 40 uM measured after 48 hrs by propidium iodide staining based flow cytometry; assay type: functional
[35] = Cell cycle arrest in doxorubicin resistant human K562 cells assessed as accumulation at G0/G1 phase at 30 to 40 uM measured after 48 hrs by propidium iodide staining based flow cytometry; assay type: functional
[36] = system: K562; assay: Induction of apoptosis in doxorubicin resistant human K562 cells at 30 uM by Annexin V-FITC/propidium iodide staining based flow cytometry; assay type: functional
[37] = Down regulation of p-gp expression in doxorubicin resistant human K562 cells at 20 to 30 uM measured after 48 hrs by Western blot method; assay type: functional, cell-based
[38] = system: K562; assay: Induction of apoptosis in doxorubicin resistant human K562 cells at 40 uM by Annexin V-FITC/propidium iodide staining based flow cytometry; assay type: functional
[39] = Cell cycle arrest in doxorubicin resistant human K562 cells assessed as decrease in S phase at 20 uM measured after 48 hrs by propidium iodide staining based flow cytometry; assay type: functional
[40] = Up regulation of p53 expression in doxorubicin resistant human K562 cells at 20 to 40 uM measured after 48 hrs by Western blot method; assay type: functional, cell-based
[41] = Down regulation of cyclin B1 expression in doxorubicin resistant human K562 cells at 20 to 40 uM measured after 48 hrs by Western blot method; assay type: functional, cell-based

| Stability [1] | Stability [2] | Stability [3] | Stability [4] | GI50 [6] [µM] | Stability [7] | Stability [8] | Stability [9] | Stability [11] | Stability [12] | Stability [13] | GI50 [14] [µM] | SMILES | GI50 [5] [µM] | GI50 [10] [µM] | also measured |
| --- | --- | --- | --- | --- | --- | --- | --- | --- | --- | --- | --- | --- | --- | --- | --- |
| Stable | Stable | Stable | Stable | 92 | Stable | Stable | Stable | Stable | Stable | Stable | 62.7 | COc1cc(/C=C/C(C)=O)ccc1O [DEHYDROZINGERONE] | 85.3 | 64.8 |  |
| Stable | Stable | Stable | Stable | 2.73 | Stable | Stable | Stable | Stable | Stable | Stable | 2.6 | C#CCOc1ccc(/C=C/C(=O)CC(=O)/C=C/c2ccc(OCC#C)c(OC)c2)cc1OC | 6.3 | 3.4 | Activity [15]: 9.3%; Activity [16]: Active; Activity [17]: Active; Activity [18]: Active; Activity [19]: Active; Activity [20]: Active; Activity [21]: Active; Activity [22]: Active; Activity [23]: Active; inhibition [24]: Active; Activity [25]: Active; Activity [26]: 11.3%; Activity [27]: 14.8% |
|  |  |  |  | > 150 |  |  |  |  |  |  | 41 | COc1cc(/C=C/C(C)=O)ccc1OCCCNC(=O)OC(C)(C)C | > 150 | 55.2 | inhibition [24]: Active |
| Unstable | Stable | Unstable | Unstable | 19.7 | Stable | Stable | Unstable | Stable | Stable | Unstable | 26 | COc1cc(/C=C/C(=O)CC(=O)/C=C/c2ccc(O)c(OC)c2)ccc1O [CURCUMIN] | 21.7 | 27.3 | Activity [29]: Active; Activity [30]: Active; Activity [31]: Active; Activity [32]: Active; Activity [33]: 11.8%; Activity [34]: Active; Activity [35]: Active; Activity [36]: 26.9%; Activity [37]: Active; Activity [38]: 32%; Activity [39]: Active; Activity [40]: Active; Activity [41]: Active |
| Stable | Unstable | Stable | Stable | 20.7 | Unstable | Stable | Stable | Stable | Unstable | Stable | 1.8 | COc1cc(/C=C/C(=O)/C=C/c2ccc(O)c(OC)c2)ccc1O | 9.33 | 1.47 |  |
|  |  |  |  | > 150 |  |  |  |  |  |  | > 150 | COC(=O)COc1ccc(/C=C/C(C)=O)cc1OC | > 150 | > 150 |  |

Continued, compound first:

| SMILES | Stability [1] | Stability [2] | Stability [3] | Stability [4] | GI50 [6] [µM] | Stability [7] | Stability [8] | Stability [9] | Stability [11] | Stability [12] | Stability [13] | GI50 [14] [µM] | GI50 [5] [µM] | GI50 [10] [µM] | also measured |
| --- | --- | --- | --- | --- | --- | --- | --- | --- | --- | --- | --- | --- | --- | --- | --- |
| COc1cccc2c1C(=O)c1c(O)c3c(c(O)c1C2=O)C[C@@](O)(C(=O)CO)C[C@@H]3O[C@H]1C[C@H](N)[C@H](O)[C@H](C)O1 [DOXORUBICIN] |  |  |  |  | > 0.15 |  |  |  |  |  |  | > 0.15 | 0.065 | 0.02 | GI50 [28]: 11.6 µM |
| C=CCOc1ccc(/C=C/C(C)=O)cc1OC |  |  |  |  | 63.3 |  |  |  |  |  |  | 39.3 | 68.7 | 41.5 |  |
| COc1cc(/C=C/C(C)=O)ccc1OCc1cn(CCO[C@@H]2O[C@H](COC(C)=O)[C@H](OC(C)=O)[C@H](OC(C)=O)[C@H]2NC(C)=O)nn1 |  |  |  |  | > 150 |  |  |  |  |  |  | > 150 | > 150 | > 150 |  |
| COc1ccc(CCN(C)CCCC(C#N)(c2ccc(OC)c(OC)c2)C(C)C)cc1OC (stereo not drawn) |  |  |  |  |  |  |  |  |  |  |  |  |  |  | inhibition [24]: Active |
| C#CCOc1ccc(/C=C/C(C)=O)cc1OC |  |  |  |  | 133 |  |  |  |  |  |  | 41.7 | > 150 | 52.7 |  |
| COc1cc(/C=C/C(=O)CC(=O)/C=C/c2ccc(OCc3cn(CCO[C@@H]4O[C@H](COC(C)=O)[C@H](OC(C)=O)[C@H](OC(C)=O)[C@H]4NC(C)=O)nn3)c(OC)c2)ccc1OCc1cn(CCO[C@@H]2O[C@H](COC(C)=O)[C@H](OC(C)=O)[C@H](OC(C)=O)[C@H]2NC(C)=O)nn1 |  |  |  |  | > 150 |  |  |  |  |  |  | > 150 | > 150 | > 150 |  |
